Data from patent publication US12396995B2, “Substituted 4-aminoisoindoline-1,3-dione compounds and second active agents for combined use” (Celgene Corporation, priority 2019, dated 2025).

Experiments:
[1] = test system: primary CLL cells (CD5+CD19+ tumor cells); experiment: Ex vivo apoptosis of B-cell CLL patient cells, Compound 1 with ibrutinib (flow cytometry, Caspase 3); assay type: cell-based, human; settings: 144 hrs
Procedure: After 144 hrs of treatment with both the agents, flow cytometric analysis was used to determine the number of tumor cells that were viable or apoptotic.
(§1) The tumor cell count was assessed by staining the patient PBMCs in each condition with tumor cell surface markers CD5 & CD19 along with Live/Dead fixable dye to exclude the dead cells and followed by intracellular staining for Caspase3 antibody to identify the apoptotic cells and was measured by flow cytometry (Attune NxT, Thermo Fisher). The live tumor cell count for each condition was calculated by normalizing to the precision count beads added to each sample.
For apoptosis analysis, the percentage of apoptosis combining both “early” (Caspase 3 positive and Live-Dead fixable dye negative) and “late” apoptosis (Caspase 3 and Live-Dead fixable dye positive) cell gates subtracting the baseline DMSO value was graphed using GraphPad Prism 8.0.0.0. The Ymax (maximal percentage of apoptosis achieved) values from apoptosis curves were calculated by performing a nonlinear regression curve fitting using log(agonist) vs. normalized response—Variable slope analysis and identifying the maximum value on GraphPad Prism 8.0.0 (Table 9).

[2] = test system: primary CLL cells (CD5+CD19+ tumor cells); experiment: Ex vivo apoptosis of B-cell CLL patient cells, Compound 1 with venetoclax (flow cytometry, Caspase 3); assay type: cell-based, human; settings: 144 hrs
Procedure: CLL is characterized by accumulation of clonal CD5^+CD19^+ lymphocytes resistant to apoptosis. Venetoclax blocks the anti-apoptotic B-cell lymphoma-2 (Bcl-2) protein, leading to programmed cell death of CLL cells and is currently being tested in the clinic with different combinations for relapsed refractory patients. The effect of Compound 1 in combination with venetoclax on the proliferation and survival of CLL B cells was assessed utilizing an ex vivo model where primary CLL cells from patient-derived blood were stimulated to proliferate with 10% fetal bovine serum (FBS), 5 ng/mL recombinant human interleukine-4 (rh IL-4), 10 ng/mL recombinant human interleukine-10 (rh IL-10) and co-cultured with fibroblast expressing surface CD154 (CD40L) in a 96 well plate format.
Peripheral blood mononuclear cells (PBMCs) from CLL patients (Table 6) containing 52%-86% of CD5^+CD19^+ tumor cells were cultured at a density of 0.06-0.1×10^6 cells/well on a monolayer of CD154-expressing fibroblasts at a density of 0.09×10^6 cells/well in 96-well plates in RPMI 1640 medium supplemented with 10% FBS, 5 ng/mL rh IL-4 and 10 ng/mL rh IL-10 and were simultaneously treated with vehicle control (0.1% DMSO) or increasing concentrations of Compound 1 ranging from 0.0001 to 1 μM and venetoclax at concentrations ranging from 0.001 to 10 μM across all the different concentrations of Compound 1. After 144 hrs of treatment with both the agents, flow cytometric analysis was used to determine the number of tumor cells that were viable or apoptotic.
as §1, with “After 6 days of treatment, the tumor” for “The tumor”, “for Caspase 3” for “for Caspase3”
For apoptosis analysis, the percentage of apoptosis combining both “early” (Caspase 3 positive and Live-Dead fixable dye negative) and “late” apoptosis (Caspase 3 and Live-Dead fixable dye positive) cell gates subtracting the baseline DMSO value was graphed using GraphPad Prism 8.0.0.0. The Ymax (maximal percentage of apoptosis achieved) values from apoptosis curves were calculated by performing a nonlinear regression curve fitting using log(agonist) vs. normalized response—Variable slope analysis and identifying the maximum value on GraphPad Prism 8.0.0 (Table 7).

[3] = test system: WSU-DLCL2 DLBCL xenograft tumors; experiment: WSU-DLCL2 (DLBCL) xenograft model, Compound 1 alone and with tazemetostat; assay type: in vivo, female SCID mice
Procedure: Anti-tumor activity of Compound 1 alone and in combination with tazemetostat was studied in WSU-DLCL2 (DLBCL) xenograft model. Compound 1 (1 mg/kg) was administered once daily for 5 consecutive days followed by 2 days off (5 D on/2 D off) and tazemetostat (200 mg/kg) was administered twice daily (BID).
Methods: Xenograft study was conducted with female SCID mice bearing WSU-DLCL2 DLBCL xenograft tumors. Female SCID mice were inoculated subcutaneously with WSU-DLCL2 cells in the flank region above the right hind leg. Following inoculation of animals, the tumors were allowed to grow to approximately 200 mm^3 prior to randomization. On day 14 following tumor cell inoculation, the mice bearing WSU-DLCL2 tumors ranging between 150 and 250 mm^3 were pooled together and randomized into various treatment groups. Compound 1 was formulated in 0.5% Methyl Cellulose, 0.25% Tween 80 and 50 mM Citrate pH 3 in water. Tazemetostat was formulated in CMC-Tween. Compound 1 (1 mg/kg) was orally administered with three cycles of once daily for 5 consecutive days followed by 2 days off starting from day 14 after tumor cell inoculation. Tazemetostat 200 mg/kg) was orally administered twice day (BID) for three weeks. In combination group the animals received Compound 1 (1 mg/kg/5 D on/2 D off) and tazemetostat (200 mg/kg, BID) simultaneously for three weeks starting from day 14 after tumor cell inoculation. Tumors were measured twice a week using calipers and tumor volumes were calculated using the formula of W^2×L/2. Statistical analysis was performed using a one-way or 2-way analysis of variance (ANOVA). Synergy calculations were performed using fractional product method.

[4] = DMSO + Cpd1 DRC (no venetoclax)

SMILES: O=C1CC[C@H](N2C(=O)c3cccc(NCc4ccc(CN5CC(N6CCOCC6)C5)cc4F)c3C2=O)C(=O)N1 [Compound 1, (S)-2-(2,6-dioxopiperidin-3-yl)-4-((2-fluoro-4-((3-morpholinoazetidin-1-yl)methyl)benzyl)amino)isoindoline-1,3-dione]
- Ymax of Pt 11 (%), maximal apoptosis ([1]; DMSO + Cpd1 DRC (no ibrutinib)): 14.40%
- Ymax of Pt 12 (%), maximal apoptosis ([1]; DMSO + Cpd1 DRC (no ibrutinib)): 14.19%
- Ymax of Pt 13 (%), maximal apoptosis ([1]; DMSO + Cpd1 DRC (no ibrutinib)): 36.93%
- Ymax of Pt 14 (%), maximal apoptosis ([1]; DMSO + Cpd1 DRC (no ibrutinib)): 17.21%
- Ymax of Pt 11 (%), maximal apoptosis ([1]; ibrutinib 0.001 uM + Cpd1 DRC): 19.80%
- Ymax of Pt 12 (%), maximal apoptosis ([1]; ibrutinib 0.001 uM + Cpd1 DRC): 15.67%
- Ymax of Pt 13 (%), maximal apoptosis ([1]; ibrutinib 0.001 uM + Cpd1 DRC): 26.75%
- Ymax of Pt 14 (%), maximal apoptosis ([1]; ibrutinib 0.001 uM + Cpd1 DRC): 17.87%
- Ymax of Pt 11 (%), maximal apoptosis ([1]; ibrutinib 0.01 uM + Cpd1 DRC): 18.66%
- Ymax of Pt 12 (%), maximal apoptosis ([1]; ibrutinib 0.01 uM + Cpd1 DRC): 13.66%
- Ymax of Pt 13 (%), maximal apoptosis ([1]; ibrutinib 0.01 uM + Cpd1 DRC): 30.53%
- Ymax of Pt 14 (%), maximal apoptosis ([1]; ibrutinib 0.01 uM + Cpd1 DRC): 18.30%
- Ymax of Pt 11 (%), maximal apoptosis ([1]; ibrutinib 0.1 uM + Cpd1 DRC): 12.33%
- Ymax of Pt 12 (%), maximal apoptosis ([1]; ibrutinib 0.1 uM + Cpd1 DRC): 17.47%
- Ymax of Pt 13 (%), maximal apoptosis ([1]; ibrutinib 0.1 uM + Cpd1 DRC): 32.49%
- Ymax of Pt 14 (%), maximal apoptosis ([1]; ibrutinib 0.1 uM + Cpd1 DRC): 13.59%
- Ymax of Pt 11 (%), maximal apoptosis ([1]; ibrutinib 1 uM + Cpd1 DRC): 19.73%
- Ymax of Pt 12 (%), maximal apoptosis ([1]; ibrutinib 1 uM + Cpd1 DRC): 22.48%
- Ymax of Pt 13 (%), maximal apoptosis ([1]; ibrutinib 1 uM + Cpd1 DRC): 29.70%
- Ymax of Pt 14 (%), maximal apoptosis ([1]; ibrutinib 1 uM + Cpd1 DRC): 17.65%
- Ymax of Pt 11 (%), maximal apoptosis ([1]; ibrutinib 10 uM + Cpd1 DRC): 29.73%
- Ymax of Pt 12 (%), maximal apoptosis ([1]; ibrutinib 10 uM + Cpd1 DRC): 24.18%
- Ymax of Pt 13 (%), maximal apoptosis ([1]; ibrutinib 10 uM + Cpd1 DRC): 35.37%
- Ymax of Pt 14 (%), maximal apoptosis ([1]; ibrutinib 10 uM + Cpd1 DRC): 19.33%
- Ymax of Pt 11 (%), maximal apoptosis [2, 4]: 12.42%
- Ymax of Pt 12 (%), maximal apoptosis [2, 4]: 14.64%
- Ymax of Pt 13 (%), maximal apoptosis [2, 4]: 27.00%
- Ymax of Pt 14 (%), maximal apoptosis [2, 4]: 13.32%
- Ymax of Pt 11 (%), maximal apoptosis ([2]; venetoclax 0.001 uM + Cpd1 DRC): 17.79%
- Ymax of Pt 12 (%), maximal apoptosis ([2]; venetoclax 0.001 uM + Cpd1 DRC): 24.85%
- Ymax of Pt 13 (%), maximal apoptosis ([2]; venetoclax 0.001 uM + Cpd1 DRC): 33.09%
- Ymax of Pt 14 (%), maximal apoptosis ([2]; venetoclax 0.001 uM + Cpd1 DRC): 17.39%
- Ymax of Pt 11 (%), maximal apoptosis ([2]; venetoclax 0.01 uM + Cpd1 DRC): 38.49%
- Ymax of Pt 12 (%), maximal apoptosis ([2]; venetoclax 0.01 uM + Cpd1 DRC): 34.24%
- Ymax of Pt 13 (%), maximal apoptosis ([2]; venetoclax 0.01 uM + Cpd1 DRC): 49.03%
- Ymax of Pt 14 (%), maximal apoptosis ([2]; venetoclax 0.01 uM + Cpd1 DRC): 27.33%
- Ymax of Pt 11 (%), maximal apoptosis ([2]; venetoclax 0.1 uM + Cpd1 DRC): 58.37%
- Ymax of Pt 12 (%), maximal apoptosis ([2]; venetoclax 0.1 uM + Cpd1 DRC): 45.34%
- Ymax of Pt 13 (%), maximal apoptosis ([2]; venetoclax 0.1 uM + Cpd1 DRC): 52.16%
- Ymax of Pt 14 (%), maximal apoptosis ([2]; venetoclax 0.1 uM + Cpd1 DRC): 31.44%
- Ymax of Pt 11 (%), maximal apoptosis ([2]; venetoclax 1 uM + Cpd1 DRC): 66.55%
- Ymax of Pt 12 (%), maximal apoptosis ([2]; venetoclax 1 uM + Cpd1 DRC): 48.71%
- Ymax of Pt 13 (%), maximal apoptosis ([2]; venetoclax 1 uM + Cpd1 DRC): 55.23%
- Ymax of Pt 14 (%), maximal apoptosis ([2]; venetoclax 1 uM + Cpd1 DRC): 40.57%
- Ymax of Pt 11 (%), maximal apoptosis ([2]; venetoclax 10 uM + Cpd1 DRC): 72.34%
- Ymax of Pt 12 (%), maximal apoptosis ([2]; venetoclax 10 uM + Cpd1 DRC): 54.25%
- Ymax of Pt 13 (%), maximal apoptosis ([2]; venetoclax 10 uM + Cpd1 DRC): 60.52%
- Ymax of Pt 14 (%), maximal apoptosis ([2]; venetoclax 10 uM + Cpd1 DRC): 45.98%
- combination antitumor activity (fractional product method) ([3]; Compound 1 1 mg/kg and tazemetostat 200 mg/kg): synergistic
- tumor volume reduction compared to vehicle control ([3]; Compound 1 1 mg/kg in combination with tazemetostat 200 mg/kg): 93.7%
- inhibition of tumor growth ([3]; single agent Compound 1 1 mg/kg oral, 5 D on/2 D off, three cycles): −45.6%
